According to the supplement of paper PMC10307832:

Columns and labels:
Test in all cases: relative viability (nuclei count vs DMSO), 5 days (fraction); higher = more cells survive
AZD6482 + Crizotinib = compound: Cc1cc([C@@H](C)Nc2ccccc2C(=O)O)c2nc(N3CCOCC3)cc(=O)n2c1 [AZD6482] + C[C@@H](Oc1cc(-c2cnn(C3CCNCC3)c2)cnc1N)c1c(Cl)ccc(F)c1Cl [Crizotinib] (partner 1 µM)
Method in brief: (§1)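 Nuclei were stained with Hoechst during a one-step fixation (final 0.05% Triton X-100, 1% formaldehyde, 1 ug/ml Hoechst) carried out 5 days after dosing, then counted on 4× images. The cells, lung cancer lines in 1536-well plates, had been dosed by pin tool the day after seeding with one drug alone or a fixed anchor-drug dose plus five library-drug doses (not always all listed) in √10 steps. Relative viability is the nuclei count in treated wells divided by that in vehicle wells, and each value is the median of duplicate plates.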

[1] = compound: COc1cc2nc(N3CCCN(C)CC3)nc(NC3CCN(Cc4ccccc4)CC3)c2cc1OC + COc1cc2c(Oc3ccc(NC(=O)C4(C(=O)Nc5ccc(F)cc5)CC4)cc3F)ccnc2cc1OCCCN1CCOCC1 [Foretinib] (partner 0.25 µM)
Method in brief: as §1

[2] = compound: COc1cc2nc(N3CCCN(C)CC3)nc(NC3CCN(Cc4ccccc4)CC3)c2cc1OC + Cc1cc(Nc2cc(N3CCN(C)CC3)nc(Sc3ccc(NC(=O)C4CC4)cc3)n2)n[nH]1 [Tozasertib] (partner 0.1 µM)
Method in brief: as §1

AZD6482 + Bortezomib = compound: Cc1cc([C@@H](C)Nc2ccccc2C(=O)O)c2nc(N3CCOCC3)cc(=O)n2c1 [AZD6482] + CC(C)C[C@H](NC(=O)[C@H](Cc1ccccc1)NC(=O)c1cnccn1)B(O)O [Bortezomib] (partner 0.002 µM)
Method in brief: as §1

Cell Line UMC-11 has a relative viability (AZD6482 + Crizotinib; first compound 0.08 µM) of 0.505, a relative viability (AZD6482 + Crizotinib; first compound 0.253 µM) of 0.578 and a relative viability (AZD6482 + Crizotinib; first compound 0.8 µM) of 0.628. For the same cell line, the relative viability (AZD6482 + Crizotinib; first compound 2.53 µM) was 0.516, the relative viability (AZD6482 + Crizotinib; first compound 8 µM) was 0.511 and the relative viability ([1]; first compound 0.2 µM) was 0.943. For the same cell line, the relative viability ([1]; first compound 0.6325 µM) was 1.05, the relative viability ([1]; first compound 2 µM) was 1.15 and the relative viability ([1]; first compound 6.325 µM) was 0.826. The relative viability ([2]; first compound 0.2 µM) was 0.202, the relative viability ([2]; first compound 0.6325 µM) was 0.214 and the relative viability ([2]; first compound 2 µM) was 0.212. For the same cell line, the relative viability ([2]; first compound 6.325 µM) was 0.2, the relative viability (AZD6482 + Bortezomib; first compound 0.08 µM) was 0.836 and the relative viability (AZD6482 + Bortezomib; first compound 0.253 µM) was 0.628. It also gave a relative viability (AZD6482 + Bortezomib; first compound 0.8 µM) of 0.862, a relative viability (AZD6482 + Bortezomib; first compound 2.53 µM) of 0.627 and a relative viability (AZD6482 + Bortezomib; first compound 8 µM) of 0.75.
